Reference: patent US8133898B2, “Renin inhibitors” (Takeda Pharmaceutical Company Limited, priority 2008, dated 2012)
pIC50: −log10 of the molar value.

Columns and labels:
Recombinant human renin = target: T1, Recombinant human renin (Homo sapiens, UniProt P00797); assay: in vitro enzymatic activity of renin inhibitors (fluorescence); format: biochemical; conditions: fluorogenic peptide substrate
T1 construct: with trypsin, and isolate the active form (residues 67-406); made in house; host or cells: FreeStyle 293-F cells (transient expression of pcDNA3.1(+)/hREN)
T1 sequence (P00797 67-406): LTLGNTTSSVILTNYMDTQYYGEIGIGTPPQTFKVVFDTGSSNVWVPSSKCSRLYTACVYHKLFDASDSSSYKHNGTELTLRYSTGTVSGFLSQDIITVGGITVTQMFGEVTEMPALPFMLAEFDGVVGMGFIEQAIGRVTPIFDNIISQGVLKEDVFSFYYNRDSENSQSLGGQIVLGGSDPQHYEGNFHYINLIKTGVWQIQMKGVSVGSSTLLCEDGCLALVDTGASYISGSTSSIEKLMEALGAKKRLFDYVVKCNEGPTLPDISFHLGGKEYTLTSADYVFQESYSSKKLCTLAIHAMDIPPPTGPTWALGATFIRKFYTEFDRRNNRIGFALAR
Excerpt: Test compounds in varying concentrations may be reacted with recombinant human renin in the presence of substrate, e.g., QXL520-γ-Abu-Ile-His-Pro-Phe-His-Leu-Val-Ile-His-Thr-Lys (HiLyteFluo488)-Arg-OH (Anaspec, San Jose, Calif.). The reaction can be followed kinetically using fluorescence (excitation λ=485 nm; emission λ=538 nm). Inhibition constants (IC50) may be calculated by non-linear curve fitting of the compound concentrations and fluorescence intensities to the standard IC50 equation.
Solutions of test compounds in varying concentrations (≦2 mM final concentration) are prepared in dimethyl sulfoxide (DMSO) and then diluted into assay buffer comprising 50 mM Hepes, 1 mM EDTA, 1 mM DTT, 0.1 mg/ml BSA, 0.01% Brij35, pH 7.4. Alternatively, the assay can be performed with a high BSA concentration, wherein the buffer contains an additional 2% BSA.
Recombinant human renin (3 nM final concentration) is added to the dilutions and pre-incubated with the compounds for 10 minutes at 37° C. As described in Examples A-C above, human renin can be obtained by expressing preprorenin (residue 1-406) in mammalian cells, treating the prorenin (residues 24-406) contained in the culture supernatant with trypsin, and isolate the active form (residues 67-406). After pre-incubation, the reaction is initiated with 1 μM of substrate QXL520-γ-Abu-Ile-His-Pro-Phe-His-Leu-Val-Ile-His-Thr-Lys (HiLyteFluo488)-Arg-OH (Anaspec, San Jose, Calif.). The final DMSO in the assay is 5%. The total volume of the reaction mixture is 20 μL, which can be placed on Greiner 384-well small volume plates.
Renin activity may be determined via fluorescence (excitation λ=485 nm; emission λ=538 nm), e.g., on a Molecular Devices SPECTROmax GEMINI XPS. The fluorescence intensity is determined upon the addition of substrate and determined again after incubation at 37° C. for one hour. The fluorescence intensity of a blank (no inhibition) using vehicle alone is also determined. Renin activity is linearly proportional to the change in fluorescence observed (final—initial).
The percent inhibition of renin at a given compound concentration is defined as: 100%×[1−(Fcompound/Fblank)] where Fcompound is the observed fluorescence at a given concentration of test compound and Fblank is the observed fluorescence in the presence of vehicle alone.
The pIC50 value (negative log of the molar concentration of the compound that produces 50% inhibition) of a test compound is calculated by non-linear least squares curve fitting of the equation: Percent Inhibition=100%/(1+(10−pIC50/10 log [I])) to percent inhibition versus compound concentration. The 50% inhibitory concentration (IC50) of a test compound is calculated by raising 10 to the negative pIC50 (10-pIC50).

Human DPP-IV = Human DPP-IV (Homo sapiens, UniProt P27487); assay: in vitro enzymatic activity of inhibitors against DPP-IV; format: biochemical; conditions: AP-AFC substrate
Experimental: Solutions of test compounds in varying concentrations ([…]) were prepared in dimethyl sulfoxide (DMSO) and then diluted into assay buffer comprising: 20 mM Tris, pH 7.4; 20 mM KCl; and 0.1 mg/mL BSA. Human DPP-IV (0.1 nM final concentration) was added to the dilutions and pre-incubated for 10 minutes at ambient temperature before the reaction was initiated with A-P-7-amido-4-trifluoromethylcoumarin (AP-AFC; 10 μM final concentration). The total volume of the reaction mixture was 10-100 μL depending on assay formats used (384 or 96 well plates). The reaction was followed kinetically (excitation λ=400 nm; emission λ=505 nm) for 5-10 minutes or an end-point was measured after 10 minutes. Inhibition constants (IC50) were calculated from the enzyme progress curves using standard mathematical models.

Human DPP-IV, sequence (P27487 whole entry): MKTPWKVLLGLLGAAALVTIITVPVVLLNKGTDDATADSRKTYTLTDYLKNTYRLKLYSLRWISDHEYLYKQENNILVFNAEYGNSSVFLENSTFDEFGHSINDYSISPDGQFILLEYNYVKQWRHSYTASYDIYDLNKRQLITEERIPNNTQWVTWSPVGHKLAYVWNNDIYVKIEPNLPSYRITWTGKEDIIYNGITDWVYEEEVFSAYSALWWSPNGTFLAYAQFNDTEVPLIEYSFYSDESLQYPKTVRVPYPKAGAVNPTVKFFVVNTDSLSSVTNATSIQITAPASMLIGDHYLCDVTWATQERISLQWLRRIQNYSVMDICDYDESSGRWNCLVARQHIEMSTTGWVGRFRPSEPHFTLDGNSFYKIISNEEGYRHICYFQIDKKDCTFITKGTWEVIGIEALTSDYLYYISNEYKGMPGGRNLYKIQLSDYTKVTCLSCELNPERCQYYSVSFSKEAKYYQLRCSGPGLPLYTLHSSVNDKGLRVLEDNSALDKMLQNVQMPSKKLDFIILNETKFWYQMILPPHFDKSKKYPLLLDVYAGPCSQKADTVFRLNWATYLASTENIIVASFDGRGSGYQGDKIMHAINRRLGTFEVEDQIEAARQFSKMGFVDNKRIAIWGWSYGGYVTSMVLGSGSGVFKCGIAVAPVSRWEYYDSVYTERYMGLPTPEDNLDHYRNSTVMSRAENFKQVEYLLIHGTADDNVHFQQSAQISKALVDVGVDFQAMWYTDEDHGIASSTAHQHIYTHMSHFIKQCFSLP

Molecule “6-(aminomethyl)-5-(2-bromo-5-fluorophenyl)-7-(4-(ethylamino)phenylthio)-1,3-dimethylpyrido[2,3-d]pyrimidine-2,4(1H,3H)-dione [Compound 69]” has a pIC50 (Recombinant human renin) of 4.00 to 5.00 and a pIC50 (Human DPP-IV) of over 6.00.

Work on `CCOc1cc(OCC)cc(-c2c(CN)c(NCc3ccc4ccccc4c3)nc3c2c(=O)n(C)c(=O)n3C)c1` [Compound 56, 6-(Aminomethyl)-5-(3,5-diethoxyphenyl)-1,3-dimethyl-7-(naphthalen-2-ylmethylamino)pyrido[2,3-d]pyrimidine-2,4(1H,3H)-dione] yielded a pIC50 (Recombinant human renin) of under 4.00 and a pIC50 (Human DPP-IV) of under 4.00.

In the case of `COc1cc(OC)cc(-c2c(CN)c(NCc3ccc4ccccc4c3)nc3c2c(=O)n(C)c(=O)n3C)c1` [Compound 57, 6-(aminomethyl)-5-(3,5-dimethoxyphenyl)-1,3-dimethyl-7-(naphthalen-2-ylmethylamino)pyrido[2,3-d]pyrimidine-2,4(1H,3H)-dione], the pIC50 (Recombinant human renin) was 5.00 to 6.00 and the pIC50 (Human DPP-IV) was under 4.00.

`CN(C)C(=O)c1cccc(-c2c(CN)c(NCc3ccc4ccccc4c3)nc3c2c(=O)n(C)c(=O)n3C)c1` [Compound 58, 3-(6-(Aminomethyl)-1,3-dimethyl-7-(naphthalen-2-ylmethylamino)-2,4-dioxo-1,2,3,4-tetrahydropyrido[2,3-d]pyrimidin-5-yl)-N,N-dimethylbenzamide] was tested, and the pIC50 (Recombinant human renin) was 5.00 to 6.00.

In the case of `Cn1c(=O)c2c(-c3cccc4c3OC(C)(C)C4)c(CN)c(NCc3ccc4ccccc4c3)nc2n(C)c1=O` [Compound 59, 6-(Aminomethyl)-5-(2,2-dimethyl-2,3-dihydrobenzofuran-7-yl)-1,3-dimethyl-7-(naphthalen-2-ylmethylamino)pyrido[2,3-d]pyrimidine-2,4(1H,3H)-dione], the pIC50 (Recombinant human renin) was 5.00 to 6.00 and the pIC50 (Human DPP-IV) was 4.00 to 5.00.

With `COc1ccc(Oc2cccc(-c3c(CN)c(NCc4ccc5ccccc5c4)nc4c3c(=O)n(C)c(=O)n4C)c2)cc1` [Compound 60, 6-(Aminomethyl)-5-(3-(4-methoxyphenoxy)phenyl)-1,3-dimethyl-7-(naphthalen-2-ylmethylamino)pyrido[2,3-d]pyrimidine-2,4(1H,3H)-dione] the pIC50 (Recombinant human renin) was 5.00 to 6.00 and the pIC50 (Human DPP-IV) was 4.00 to 5.00.

`COc1ccc(-c2c(CN)c(NCc3ccc4ccccc4c3)nc3c2c(=O)n(C)c(=O)n3C)cc1OC` [Compound 61, 6-(Aminomethyl)-5-(3,4-dimethoxyphenyl)-1,3-dimethyl-7-(naphthalen-2-ylmethylamino)pyrido[2,3-d]pyrimidine-2,4(1H,3H)-dione] was tested, and the pIC50 (Recombinant human renin) was 5.00 to 6.00 and the pIC50 (Human DPP-IV) was 4.00 to 5.00.

In the case of `Cn1c(=O)c2c(-c3nc4ccccc4s3)c(CN)c(NCc3ccc4ccccc4c3)nc2n(C)c1=O` [Compound 62, 6-(Aminomethyl)-5-(benzo[d]thiazol-2-yl)-1,3-dimethyl-7-(naphthalen-2 ylmethylamino)pyrido[2,3-d]pyrimidine-2,4(1H,3H)-dione], the pIC50 (Recombinant human renin) was under 4.00 and the pIC50 (Human DPP-IV) was under 4.00.

`Cn1c(=O)c2c(-c3ccccc3Oc3ccccc3)c(CN)c(NCc3ccc4ccccc4c3)nc2n(C)c1=O` [Compound 63, 6-(Aminomethyl)-1,3-dimethyl-7-(naphthalen-2-ylmethylamino)-5-(2-phenoxyphenyl)pyrido[2,3-d]pyrimidine-2,4(1H,3H)-dione] gave a pIC50 (Recombinant human renin) of 5.00 to 6.00 and a pIC50 (Human DPP-IV) of 5.00 to 6.00.

`CCOc1ccc(OCC)c(-c2c(CN)c(NCc3ccc4ccccc4c3)nc3c2c(=O)n(C)c(=O)n3C)c1` [Compound 64, 6-(aminomethyl)-5-(2,5-diethoxyphenyl)-1,3-dimethyl-7-(naphthalen-2-ylmethylamino)pyrido[2,3-d]pyrimidine-2,4(1H,3H)-dione] gave a pIC50 (Recombinant human renin) of 5.00 to 6.00 and a pIC50 (Human DPP-IV) of under 4.00.

Molecule `CCCOc1ccc(OCCC)c(-c2c(CN)c(NCc3ccc4ccccc4c3)nc3c2c(=O)n(C)c(=O)n3C)c1` [Compound 65, 6-(Aminomethyl)-5-(2,5-dipropoxyphenyl)-1,3-dimethyl-7-(naphthalen-2-ylmethylamino)pyrido[2,3-d]pyrimidine-2,4(1H,3H)-dione] has a pIC50 (Recombinant human renin) of 4.00 to 5.00 and a pIC50 (Human DPP-IV) of under 4.00.

For `Cn1c(=O)c2c(-c3ccc(CN)cc3)c(CN)c(N)nc2n(C)c1=O` [Compound 66, 7-Amino-6-(aminomethyl)-5-(4-(aminomethyl)phenyl)-1,3-dimethylpyrido[2,3-d]pyrimidine-2,4(1H,3H)-dione], the pIC50 (Recombinant human renin) was 4.00 to 5.00 and the pIC50 (Human DPP-IV) was under 4.00.

`CCCOc1cc(OCCC)cc(-c2c(CN)c(NCc3ccc4ccccc4c3)nc3c2c(=O)n(C)c(=O)n3C)c1` [Compound 67, 6-(Aminomethyl)-5-(3,5-dipropoxyphenyl)-1,3-dimethyl-7-(naphthalen-2-ylmethylamino)pyrido[2,3-d]pyrimidine-2,4(1H,3H)-dione] was tested, and the pIC50 (Recombinant human renin) was 4.00 to 5.00 and the pIC50 (Human DPP-IV) was under 4.00.

In the case of `CC(=O)Nc1ccc(Sc2nc3c(c(-c4cc(F)ccc4Br)c2CN)c(=O)n(C)c(=O)n3C)cc1` [Compound 68, N-(4-(6-(aminomethyl)-5-(2-bromo-5-fluorophenyl)-1,3-dimethyl-2,4-dioxo-1,2,3,4-tetrahydropyrido[2,3-d]pyrimidin-7-ylthio)phenyl)acetamide], the pIC50 (Recombinant human renin) was 4.00 to 5.00 and the pIC50 (Human DPP-IV) was over 6.00.

`COc1ccc(F)cc1-c1c(CN)c(NCc2ccc3ccccc3c2)nc2c1c(=O)n(C)c(=O)n2C` [Compound 70, 6-(aminomethyl)-5-(5-fluoro-2-methoxyphenyl)-1,3-dimethyl-7-(naphthalen-2-ylmethylamino)pyrido[2,3-d]pyrimidine-2,4(1H,3H)-dione] gave a pIC50 (Recombinant human renin) of 5.00 to 6.00 and a pIC50 (Human DPP-IV) of over 6.00.

`COc1cccc(CNc2nc3c(c(-c4cc(F)ccc4OC)c2CN)c(=O)n(C)c(=O)n3C)c1` [Compound 71, 6-(aminomethyl)-5-(5-fluoro-2-methoxyphenyl)-7-(3-methoxybenzylamino)-1,3-dimethylpyrido[2,3-d]pyrimidine-2,4(1H,3H)-dione] gave a pIC50 (Recombinant human renin) of 5.00 to 6.00.

`COc1ccc(F)cc1-c1c(CN)c(NCc2ccc(-n3cccn3)cc2)nc2c1c(=O)n(C)c(=O)n2C` [Compound 72, 7-(4-(1H-pyrazol-1-yl)benzylamino)-6-(aminomethyl)-5-(5-fluoro-2-methoxyphenyl)-1,3-dimethylpyrido[2,3-d]pyrimidine-2,4(1H,3H)-dione] gave a pIC50 (Recombinant human renin) of 5.00 to 6.00 and a pIC50 (Human DPP-IV) of over 6.00.

For `CCC(CC)Nc1nc2c(c(-c3cc(F)ccc3OC)c1CN)c(=O)n(C)c(=O)n2C` [Compound 73, 6-(aminomethyl)-5-(5-fluoro-2-methoxyphenyl)-1,3-dimethyl-7-(pentan-3-ylamino)pyrido[2,3-d]pyrimidine-2,4(1H,3H)-dione], the pIC50 (Recombinant human renin) was 5.00 to 6.00.

`COc1ccc(F)cc1-c1c(CN)c(NCCCc2ccccc2)nc2c1c(=O)n(C)c(=O)n2C` [Compound 75, 6-(aminomethyl)-5-(5-fluoro-2-methoxyphenyl)-1,3-dimethyl-7-(3-phenylpropylamino)pyrido[2,3-d]pyrimidine-2,4(1H,3H)-dione] gave a pIC50 (Recombinant human renin) of 5.00 to 6.00 and a pIC50 (Human DPP-IV) of over 6.00.

`CC(C)COc1cccc(-c2c(CN)c(N)nc3c2c(=O)n(C)c(=O)n3C)c1` [Compound 76, 7-amino-6-(aminomethyl)-5-(3-isobutoxyphenyl)-1,3-dimethylpyrido[2,3-d]pyrimidine-2,4(1H,3H)-dione] showed a pIC50 (Recombinant human renin) of under 4.00 and a pIC50 (Human DPP-IV) of 4.00 to 5.00.
